Results reported in article PMC2856487 (Journal of natural products, 2009).
pIC50: −log10 of the molar value. ≈ marks a conversion by molar mass, not a printed value.

Columns and labels:
[1] = test system: lettuce (Lactuca sativa cv. L. Iceberg); assay: initial phytotoxicity bioassay, lettuce; format: in vivo; details: for Phytotoxic activity ranking: visual scale 0 to 5, 0 = no effect, 5 = no growth; for growth inhibition (in words): 1 mg/mL (highest concentration)
[2] = test system: bentgrass (Agrostis stolonifera); assay: initial phytotoxicity bioassay, bentgrass; format: in vivo; details: for Phytotoxic activity ranking: visual scale 0 to 5, 0 = no effect, 5 = no growth; for growth inhibition (in words): 1 mg/mL (highest concentration)
[3] = test system: duckweed (Lemna pausicostata); assay: duckweed growth bioassay; format: in vivo; details: 168 h, read-out: I50, growth of duckweed
[4] = cytotoxicity to SK-OV-3 cells; format: cell-based; details: human
cytotoxicity to KB cells = format: cell-based; details: human
[5] = cytotoxicity to LLC-PK11 cells; format: cell-based; details: pig
[6] = cytotoxicity to SK-MEL cells; format: cell-based; details: human
[7] = test system: W2 (chloroquin resistant) strain of P. falciparum; assay: in vitro antiplasmodial activity, W2 clone; format: cell-based, Plasmodium falciparum; details: for IC50: Plasmodium falciparum, W2, 72 h, read-out: W2-clone IC50; for antiplasmodial activity (in words): W2 strain
[8] = test system: D6 (chloroquin sensitive) strain of P. falciparum; assay: in vitro antiplasmodial activity, D6 clone; format: cell-based, Plasmodium falciparum; details: for antiplasmodial activity (in words): D6 strain; for IC50: Plasmodium falciparum, D6, 72 h, read-out: D6-clone IC50
[9] = cytotoxicity to BT-549 cells; format: cell-based; details: human
wheat coleoptile = details: cited from earlier work
[10] = test system: a number of plant species; details: cited from earlier work
[11] = cytotoxicity to Vero cells; format: cell-based; details: African green monkey, Vero cells (kidney fibroblast)
[12] = LLC-PK11 cells (kidney epithelial)
[13] = SK-OV-3 cells (ovary carcinoma)
[14] = BT-549 cells (breast ductal carcinoma)
[15] = KB cells (oral epidermal carcinoma)

Row | IC50 [8] [µg/mL] | SMILES | Phytotoxic activity ranking ([1]; 0.01 mg/mL) | Phytotoxic activity ranking ([1]; 0.1 mg/mL) | Phytotoxic activity ranking ([1]; 1.0 mg/mL) | Phytotoxic activity ranking ([2]; 0.01 mg/mL) | Phytotoxic activity ranking ([2]; 0.1 mg/mL) | Phytotoxic activity ranking ([2]; 1.0 mg/mL) | Phytotoxic activity ranking ([1]; 0.001 mg/mL) | Phytotoxic activity ranking ([2]; 0.001 mg/mL) | IC50 [7] [µg/mL] | also measured
1 | – | C[C@]12C=C[C@H](O)[C@]3(C)C(=O)O[C@@H](C13)[C@H]1O[C@]13COC(=O)C=C32 (some centres unmarked) [Compound 1] | 5 | 5 | 5 | 4 | 5 | 5 | – | – | – | –
2 | – | C[C@]12C=CC[C@]3(C)C(=O)O[C@@H](C13)[C@H]1O[C@]13COC(=O)C=C32 (some centres unmarked) [Compound 2] | 3 | 5 | 5 | 4 | 5 | 5 | 0 | 1 | – | pIC50 [3]: 6.02 to 6.41; IC50 at 48 h [4]: > 10 µg/mL; IC50 at 48 h (cytotoxicity to KB cells): > 10 µg/mL
3 | – | C[C@@]12C[C@@H](O)C[C@]3(C)C4=CC(=O)OC[C@]45O[C@@H]5[C@@H](OC1=O)C23 (some centres unmarked) [Compound 4] | 3 | 5 | 5 | 2 | 5 | 5 | 0 | 0 | 0.82 (≈ 2.68 µM) | –
4 | – | C[C@@]12CC[C@@H](O)[C@]3(C)C4=CC(=O)OC[C@]45O[C@@H]5[C@@H](OC1=O)C23 (some centres unmarked) [Compound 5] | 4 | 5 | 5 | 4 | 5 | 5 | 1 | 0 | – | IC50 at 48 h [5, 12]: > 10 µg/mL; antiplasmodial activity (in words) [7]: inactive; antiplasmodial activity (in words) [8]: inactive; IC50 at 48 h [4, 13]: > 10 µg/mL; IC50 at 48 h [9, 14]: > 10 µg/mL; IC50 at 48 h (cytotoxicity to KB cells; [15]): > 10 µg/mL
5 | 0.043 (≈ 0.149 µM) | C[C@@]12C=C[C@H](O)[C@]3(C)C(=O)O[C@H](C=C4COC(=O)C=C41)C23 (some centres unmarked) [Compound 6] | 5 | 5 | 5 | 4 | 5 | 5 | 0 | 0 | – | pIC50 [3]: 6.02 to 6.41
6 | – | C[C@@]12CC[C@@H](O)[C@]3(C)C(=O)O[C@H](C=C4COC(=O)C=C41)C23 (some centres unmarked) [Compound 8] | 0 | 2 | 5 | 0 | 3 | 5 | 0 | 0 | – | IC50 at 48 h [5]: > 10 µg/mL; IC50 at 48 h [6]: > 10 µg/mL; antiplasmodial activity (in words) [7]: inactive; antiplasmodial activity (in words) [8]: inactive; growth inhibition (in words) [1]: total inhibition of growth; IC50 at 48 h [4]: > 10 µg/mL; growth inhibition (in words) [2]: total inhibition of growth; IC50 at 48 h [9]: > 10 µg/mL; IC50 at 48 h (cytotoxicity to KB cells): > 10 µg/mL
7 | 0.097 (≈ 0.334 µM) | C[C@@]12C[C@@H](O)C[C@]3(C)C4=CC(=O)OCC4=C[C@@H](OC1=O)C23 (some centres unmarked) [Compound 9] | 2 | 5 | 5 | 3 | 5 | 5 | – | 2 | 0.084 (≈ 0.289 µM) | inhibition of wheat coleoptile elongation (in words) (wheat coleoptile): weak inhibitor
8 | – | C[C@@]12CC[C@@H](O)[C@]3(C)C4=CC(=O)OCC4=C[C@@H](OC1=O)C23 (some centres unmarked) [Compound 10] | 1 | 5 | 5 | 1 | 5 | 5 | 0 | 0 | – | –
9 | – | C[C@@]12CCC[C@]3(C)C4=CC(=O)OCC4=C[C@@H](OC1=O)C23 (some centres unmarked) [Compound 11] | 2 | 5 | 5 | 3 | 5 | 5 | 0 | 0 | – | pIC50 [3]: 6.02 to 6.41; phytotoxicity (in words) [10]: potent phytotoxin
10 | – | C[C@]12CCC[C@](C)(C(=O)O)[C@@H]1C=C[C@]1(O)COC(=O)C[C@H]21 [Compound 12, oidiolactone-E] | 2 | 4 | 5 | 1 | 4 | 5 | 0 | 0 | – | –
11 | > 4.76 | C=C1C(O)CC2[C@](C)(CCC[C@]2(C)C(=O)O)C1CC(=O)O (some centres unmarked) [Compound 13] | 0 | 0 | 1 | 0 | 0 | 0 | 0 | 0 | > 4.76 | IC50 at 48 h [5, 12]: > 10 µg/mL; IC50 at 48 h ([6]; SK-MEL cells (malignant melanoma)): > 10 µg/mL; antiplasmodial activity (in words) [7]: inactive; antiplasmodial activity (in words) [8]: inactive; growth inhibition (in words) [1]: inactive; IC50 at 48 h [4, 13]: > 10 µg/mL; IC50 at 48 h [11]: > 4.76 µg/mL; growth inhibition (in words) [2]: inactive; IC50 at 48 h [9, 14]: > 10 µg/mL; IC50 at 48 h (cytotoxicity to KB cells; [15]): > 10 µg/mL
12 | – | CCN(CC)CCCC(C)Nc1ccnc2cc(Cl)ccc12 (centres unmarked) [chloroquine, reference compound] | – | – | – | – | – | – | – | – | 0.1 (≈ 0.313 µM) | –

Row | SMILES | IC50 [8] [µg/mL] | Phytotoxic activity ranking ([1]; 0.01 mg/mL) | Phytotoxic activity ranking ([1]; 0.1 mg/mL) | Phytotoxic activity ranking ([1]; 1.0 mg/mL) | Phytotoxic activity ranking ([2]; 0.01 mg/mL) | Phytotoxic activity ranking ([2]; 0.1 mg/mL) | Phytotoxic activity ranking ([2]; 1.0 mg/mL) | Phytotoxic activity ranking ([1]; 0.001 mg/mL) | Phytotoxic activity ranking ([2]; 0.001 mg/mL) | IC50 [7] [µg/mL] | also measured
13 | C[C@]12CC[C@@H](O)[C@]3(C)C(=O)O[C@@H](C13)[C@H]1O[C@]13COC(=O)C=C32 (some centres unmarked) [Compound 3] | > 4.76 | 0 | 4 | 5 | 0 | 4 | 5 | 0 | 0 | > 4.76 | IC50 at 48 h [5]: > 10 µg/mL; IC50 at 48 h [6]: > 10 µg/mL; antiplasmodial activity (in words) [7]: inactive; antiplasmodial activity (in words) [8]: inactive; growth inhibition (in words) [1]: total inhibition of growth; IC50 at 48 h [4]: > 10 µg/mL; growth inhibition (in words) [2]: total inhibition of growth; IC50 at 48 h [9]: > 10 µg/mL; IC50 at 48 h (cytotoxicity to KB cells): > 10 µg/mL
14 | C[C@@]12C=CC[C@]3(C)C(=O)O[C@H](C=C4COC(=O)C=C41)C23 (some centres unmarked) [Compound 7] | 0.17 (≈ 0.624 µM) | 1 | 5 | 5 | – | 5 | 5 | 0 | 0 | – | pIC50 [3]: 6.02 to 6.41
